Test results as given in EP0533352A2 (LYNXVALE LIMITED, priority 1991, dated 1993).
Read-outs that look alike come from different tables or passages of the source.

Columns and labels:
[1] = test system: Rabbit urinary bladder smooth muscle strips; assay: Nerve mediated contractions of rabbit urinary bladder muscle strips induced by electrical field stimulation; type: cell-based; conditions: for effect on the frequency response curve: 1 to 40 Hz
[2] = test system: carbachol (5x10⁻⁶M) induced muscle contraction; assay: Carbachol mediated muscle contractions of rabbit bladder muscle strips; type: cell-based; conditions: GABA: 10 strips, not in 6 strips, baclofen: 6 strips, not in 3 strips

`NCCCC(=O)O` [GABA, gamma amino butyric acid] was tested. Which “effect on the frequency response curve” value ([1]; 1x10⁻⁵ GABA, n=15) did it give?
The value was “significant right shift”.

For `NCC(O)(CS(=O)(=O)O)c1ccc(Cl)cc1` (centres unmarked) [2-hydroxysaclofen], which “antagonism of the inhibition produced by GABA (change of EC₅₀)” value [1] is on record?
Its value is “significant antagonism”.

And the “change in the maximum response of GABA” value [1]?
The value was “no significant difference”.

With `NC1=N[C@H](O)[C@H]2[C@H]3O[C@]4(O)O[C@@H]([C@@H](O)[C@@]2(N1)[C@@H]4O)[C@]3(O)CO` [tetrodotoxin] as the molecule, how does the “effect on contractions obtained by electrical field stimulation” value [1] read?
Its value is “abolishing the contractions”.

How did the EC50 ([1]; Oryctolagus cuniculus, average over seven experiments, preliminary experiments, read-out: EC₅₀ for inhibition of electrically stimulated contraction) turn out when `NCCCP(O)O` [3-aminopropylphosphonous acid] was run?
Its EC50 is 250 ± 160 nM.

What about the “maximum inhibition of muscle contraction induced by electrical field stimulation” value ([1]; percentage inhibition of control contraction, 10 Hz, 0.2 ms pulse width, 30V for 3 s, mean ± S.E.M.) of the same molecule?
The value was 45 ± 18%.

How did the “EC₅₀ for inhibition of muscle contraction induced by electrical field stimulation” value [1] turn out when `NCC(CC(=O)O)c1ccc(Cl)cc1` (racemic) [(±) baclofen] was run?
The value was 7.26 (±1.2)x10⁻⁶ M.

What about the “maximum inhibition of muscle contraction induced by electrical field stimulation” value [1] of the same molecule?
Its value is 26.5(±1.58) %.

And the “effect on the frequency response curve” value ([1]; 1x10⁻⁴M baclofen, n=13)?
Its value is “significant inhibitory effect”.

And the “inhibition of carbachol induced muscle contraction” value [2]?
The value was “able to inhibit the muscle contraction”.

How did the “inhibitory effect on nerve mediated muscle contraction” value ([1]; concentration range of 1x10⁻⁸ to 1x10⁻⁵M, n=5) turn out when `NCc1cc(=O)[nH]o1` [Muscimol, muscimol] was run?
The value was “no inhibitory effect”.
